Molecules are shown by their SMILES.

The values that follow come from patent US12433870B2, “Supramolecular photoprotection of a photosensitizer” (Northwestern University, priority 2019, dated 2025).

A short description of data set [1]: Solubility in water / PBS buffer. Type of data set: physicochemical.
A short description of data set [2]: Detection of singlet oxygen (ADPA chemical method, methylene blue reference). Particulars: 20 μM, 630 nm, 50 mW, 20 min. In kind it is physicochemical. As to the method: Singlet oxygen (^1O2) quantum-yield measurements were conducted by a chemical method. The disodium salt of 9.10-anthracenedipropionic acid (ADPA) was used as singlet oxygen detection reagent with methylene blue used as a reference (Φt=0.53). In this experiment, ADPA (0.1 μmol) was added to the H2O solution of ExBox^4+⊃DPP (20 μM) with a laser irradiation (630 nm, 50 mW) for 20 min, followed by quantification of ^1O2 by the absorbance intensity change (UV-3600 Shimadzu spectrophotometer) at 380 nm of ADPA. The calculation of ^1O2 quantum yield is based on the equality ΦΔ=(ΔAs/[…])Φr. ΔAs is the absorption change of detected photosensitizer, ΔAr is the absorption change of referenced photosensitizer and Φ^r is the quantum yield of singlet oxygen of referenced photosensitizer (methylene blue).
(§1) ADPA (0.1 μmol) was added to the H2O solution of DPPH2^+ (20 μM) with a laser irradiation (630 nm, 50 mW) for 20 min, followed by quantification of the ^1O2 by the absorbance intensity change (UV-3600 Shimadzu spectrophotometer) at 380 nm of ADPA. The calculation of the ^1O2 quantum yield is based on the equality ΦΔ=(ΔAs/ΔAr)Φr where ΔAs is the absorption change of detected photosensitizer, ΔAr is the absorption change of referenced photosensitizer and Φr is the quantum yield of singlet oxygen of referenced photosensitizer (methylene blue). Measured ^1O2 quantum yield of DPPH2^2+ is 0.38 in H2O.
as §1, with “acetone” for “H2O”, “DPP” for “DPPH2^+”, “DPP” for “DPPH2^2+”, “0.43” for “0.38”, “acetone.” for “H2O.”

For data set [3], the system named is A2780 cells. As to the kind of experiment: In vitro PDT efficacy, MTT assay after visible light irradiation. Particulars: 10 μM PBS solution, light dose 0.078 J cm^−2. Type of data set: cell-based, human. As to the method:
A2780 cells (human ovarian cancer cell line) and MCF-7 cells (human breast adenocarcinoma cell line) obtained from Sigma-Aldrich and American Type Culture Collection (ATCC, Rockville, MD, USA), respectively were utilized for cell culture experiments. These cells were cultured in Dulbecco's Modified Eagle's Medium (DMEM) supplemented with 10% fetal bovine serum (FBS), penicillin (100 IU/mL) and streptomycin (100 μg/mL) at 37° C. in the presence of air (95%) and CO2 (5%).
A2780 or MCF-7 cells (2×10^5 cells/mL, 100 μL) were seeded in each well of a black 96-well plate. Stock solution of ExBox^4+⊃DPP in PBS (1 mM, 10 μL) was added to each well to achieve working concentrations and incubated for 12 h. After incubation, wells were washed with PBS, added with 100 μL of DMEM and immediately irradiated with visible light using Max-303 Xenon Light Source (385-740 nm, Asahi Spectra) at different light intensities (5-50 mW) for 1 to 15 min. Following irradiation, cells were incubated overnight and then added with MTT (5 mg/mL in PBS, 10 μL). After 4 h incubation with MTT, media from each well was pipetted out, formazan crystals deposited on the plate were dissolved in 200 μL of Me2SO, and the absorbance of each well was measured using a microplate reader at 560 nm. All the samples were analyzed in quadruplicates.
The percentage cell viability was calculated using the following formula: % cell viability=(OD of treated sample/OD of untreated sample)*100.
On the technique in general: Tetrazolium assays rely on reduction of a dye to a coloured formazan, in cell work by metabolically active cells.

Data set [4] relates to A2780 cells. Description: Live cell confocal microscopy, cellular uptake and co-localization. Type of data set: cell-based, human. The following applies: lysosomal uptake, control experiment. As to the method: A2780 cells (1×10^5 cells/mL, 300 μL) were plated in each well of an 8-well μ-slide (ibidi cell focus) and cultured overnight. PBS solution of ExBox^4+⊃DPP was added to each well and incubated for predetermined time points. For cellular co-localization studies, cells were washed with phenol free DMEM and stained with LysoTracker green (lysosome stain, 1:1000 dilution) or MitoSpy™ Green FM (mitochondria stain, 1:2000 dilution) or NucBlue™ Live ReadyProbes™ Reagent (nuclei stain, 1 drop). For the live-dead assay, cells were incubated with PBS solution of ExBox^4+⊃DPP irradiated for 10 min at […] light intensity, incubated overnight, and stained with Calcein AM (2 μM) and Ethidium homodimer-1 (4 μM). Plated cells were imaged within a humidified chamber using a 63× oil-immersion objective on a SP5 Leica Confocal Microscope using HyD detectors and lasers.

The conditions of data set [5]: reference photosensitizer; cited from earlier work.

Consider `C1=Cc2nc1cc1ccc([nH]1)c(-c1ccccc1)c1nc(cc3ccc([nH]3)c2-c2ccccc2)C=C1` [DPP, 5,15-diphenylporphyrin], for which, in data set [1] (H2O), the “solubility in H2O” value was “insoluble”. Further, the “solubility in water and PBS buffer” value in data set [1] (water and PBS buffer) is on record as “insoluble”. The “^1O2 quantum yield” value in data set [2] (in acetone) turned out to be 0.43.

With `C1=Cc2nc1cc1ccc([nH]1)c(-c1ccccc1)c1nc(cc3ccc([nH]3)c2-c2ccccc2)C=C1` [DPPH2^2+, reference compound], the “^1O2 quantum yield” value in data set [2] (in H2O) is 0.38. The “cells killed (PDT control experiment)” value in the data set with A2780 cells [3] is listed as approximately 90%. Besides, the “cellular uptake compared with the complex (fluorescence intensity inside cells)” value in the data set with A2780 cells [4] is “less efficient”.

`CN(C)c1ccc2nc3ccc(=[N+](C)C)cc-3sc2c1` [methylene blue]: the “^1O2 quantum yield of reference” value in data set [5] is given as 0.53.
